PubChem BioAssay AID256 (DTP/NCI, 2004)
Inconclusive results and toxic doses are left out. The calls were made as follows: active = survival T/C of 150% or more; inactive = T/C below 125% in these data.

Tested on: CD2F1 mice, L1210 leukemia ip, survival T/C
Test: NCI In Vivo Anticancer Drug Screen. Data for tumor model L1210 Leukemia (intraperitoneal) in CD2F1 (CDF1) mice
Conditions: higher = longer survival
Outline: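 Activity against a transplanted murine tumor was judged by comparing the compound group with a vehicle group. The outcome in the treated animals was divided by that in the controls.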

[1] = endpoint: mean survival time, dose: 100.0 mg/kg/injection, schedule: Q01DX001 (ip), vehicle: saline with Tween-80

Measured: T/C

Cc1cc2c(c3oc(C4(C)OC4C4OC4C)cc(=O)c13)C(=O)c1c(O)c(C3CC(C)(N(C)C)C(O)C(C)O3)cc(C3CC(N(C)C)C(O)C(C)O3)c1C2=O (stereo unspecified)
inactive: endpoint: mean survival time, dose: 0.07 mg/kg/injection, schedule: Q01DX009 (oral), vehicle: saline 87 % of control | endpoint: mean survival time, dose: 0.13 mg/kg/injection, schedule: Q01DX009 (oral), vehicle: saline 93 % of control | endpoint: mean survival time, dose: 0.25 mg/kg/injection, schedule: Q01DX001 (oral), vehicle: saline 98 % of control | endpoint: mean survival time, dose: 0.25 mg/kg/injection, schedule: Q01DX009 (oral), vehicle: saline 92 % of control | endpoint: mean survival time, dose: 0.5 mg/kg/injection, schedule: Q01DX001 (oral), vehicle: saline 97 % of control | endpoint: mean survival time, dose: 0.5 mg/kg/injection, schedule: Q01DX009 (oral), vehicle: saline 100 % of control | endpoint: mean survival time, dose: 1.0 mg/kg/injection, schedule: Q01DX001 (oral), vehicle: saline 96 % of control | endpoint: mean survival time, dose: 2.0 mg/kg/injection, schedule: Q01DX001 (oral), vehicle: saline 97 % of control | endpoint: mean survival time, dose: 1.0 micrograms/kg/injection, schedule: Q03HX024 (ip), vehicle: saline 106 % of control | endpoint: mean survival time, dose: 1.3 micrograms/kg/injection, schedule: Q01DX009 (ip), vehicle: water 101 % of control | endpoint: mean survival time, dose: 2.0 micrograms/kg/injection, schedule: Q03HX024 (ip), vehicle: saline 111 % of control | endpoint: mean survival time, dose: 2.5 micrograms/kg/injection, schedule: Q01DX009 (ip), vehicle: water 112 % of control | endpoint: mean survival time, dose: 4.0 micrograms/kg/injection, schedule: Q01DX009 (ip), vehicle: saline 102 % of control | endpoint: mean survival time, dose: 4.0 micrograms/kg/injection, schedule: Q03HX024 (ip), vehicle: saline 111 % of control | endpoint: mean survival time, dose: 5.0 micrograms/kg/injection, schedule: Q01DX009 (ip), vehicle: water 108 % of control | endpoint: mean survival time, dose: 8.0 micrograms/kg/injection, schedule: Q01DX009 (ip), vehicle: saline 109 % of control | endpoint: mean survival time, dose: 8.0 micrograms/kg/injection, schedule: Q03HX008 (ip), vehicle: saline 103 % of control | endpoint: mean survival time, dose: 8.0 micrograms/kg/injection, schedule: Q03HX024 (ip), vehicle: saline 112 % of control | endpoint: mean survival time, dose: 10.0 micrograms/kg/injection, schedule: Q01DX009 (ip), vehicle: water 112 % of control | endpoint: mean survival time, dose: 15.0 micrograms/kg/injection, schedule: Q01DX009 (ip), vehicle: saline 109 % of control | endpoint: mean survival time, dose: 15.0 micrograms/kg/injection, schedule: Q03HX008 (ip), vehicle: saline 112 % of control | endpoint: mean survival time, dose: 15.0 micrograms/kg/injection, schedule: Q08DX002 (ip), vehicle: saline 98 % of control | endpoint: mean survival time, dose: 20.0 micrograms/kg/injection, schedule: Q01DX009 (ip), vehicle: water 106 % of control | endpoint: mean survival time, dose: 30.0 micrograms/kg/injection, schedule: Q01DX009 (ip), vehicle: saline 114 % of control | endpoint: mean survival time, dose: 30.0 micrograms/kg/injection, schedule: Q03HX008 (ip), vehicle: saline 113 % of control | endpoint: mean survival time, dose: 30.0 micrograms/kg/injection, schedule: Q08DX002 (ip), vehicle: saline 98 % of control | endpoint: mean survival time, dose: 40.0 micrograms/kg/injection, schedule: Q01DX009 (ip), vehicle: water 91 % of control | endpoint: mean survival time, dose: 60.0 micrograms/kg/injection, schedule: Q03HX008 (ip), vehicle: saline 118 % of control | endpoint: mean survival time, dose: 60.0 micrograms/kg/injection, schedule: Q08DX002 (ip), vehicle: saline 106 % of control | endpoint: mean survival time, dose: 120.0 micrograms/kg/injection, schedule: Q08DX002 (ip), vehicle: saline 121 % of control

N[C@@H](Cc1c[nH]c2ccccc12)C(=O)Nc1nncs1
inactive: endpoint: median survival time, dose: 8.35 mg/kg/injection, schedule: Q03HX027 (ip), vehicle: saline 96 % of control | endpoint: median survival time, dose: 16.7 mg/kg/injection, schedule: Q03HX027 (ip), vehicle: saline 100 % of control | endpoint: median survival time, dose: 33.4 mg/kg/injection, schedule: Q03HX027 (ip), vehicle: saline 103 % of control | endpoint: median survival time, dose: 47.88 mg/kg/injection, schedule: Q03HX027 (ip), vehicle: saline 107 % of control | endpoint: median survival time, dose: 48.0 mg/kg/injection, schedule: Q03HX027 (ip), vehicle: saline 108 % of control | endpoint: median survival time, dose: 50.0 mg/kg/injection, schedule: Q01DX009 (ip), vehicle: saline 98 % of control | endpoint: median survival time, dose: 66.7 mg/kg/injection, schedule: Q03HX027 (ip), vehicle: saline 103 % of control | endpoint: median survival time, dose: 79.8 mg/kg/injection, schedule: Q03HX027 (ip), vehicle: saline 113 % of control | endpoint: median survival time, dose: 79.92 mg/kg/injection, schedule: Q03HX027 (ip), vehicle: saline 113 % of control | endpoint: median survival time, dose: 100.0 mg/kg/injection, schedule: Q01DX009 (ip), vehicle: saline 97 % of control | endpoint: median survival time, dose: 133.2 mg/kg/injection, schedule: Q03HX027 (ip), vehicle: saline 116 % of control | endpoint: median survival time, dose: 200.0 mg/kg/injection, schedule: Q01DX009 (ip), vehicle: saline 105 % of control | endpoint: median survival time, dose: 222.0 mg/kg/injection, schedule: Q03HX027 (ip), vehicle: saline 116 % of control | endpoint: median survival time, dose: 369.45 mg/kg/injection, schedule: Q03HX027 (ip), vehicle: saline 87 % of control | endpoint: median survival time, dose: 400.0 mg/kg/injection, schedule: Q01DX009 (ip), vehicle: saline 120 % of control

COc1ccc2c(c1)CCC1C(=O)NN=C21 (stereo unspecified)
inactive: endpoint: mean survival time, dose: 100.0 mg/kg/injection, schedule: Q04DX002 (ip), vehicle: saline with Tween-80 103 % of control | endpoint: mean survival time, dose: 200.0 mg/kg/injection, schedule: Q04DX002 (ip), vehicle: saline with Tween-80 103 % of control | endpoint: mean survival time, dose: 400.0 mg/kg/injection, schedule: Q04DX002 (ip), vehicle: saline with Tween-80 103 % of control

CC(=O)C1CCC2C3CC=C4CC(SC(=N)N)CCC4(C)C3CCC12C (stereo unspecified)
inactive: endpoint: mean survival time, dose: 75.0 mg/kg/injection, schedule: Q01DX001 (ip), vehicle: steriod suspending solution 102 % of control | endpoint: mean survival time, dose: 150.0 mg/kg/injection, schedule: Q01DX001 (ip), vehicle: steriod suspending solution 104 % of control | endpoint: mean survival time, dose: 300.0 mg/kg/injection, schedule: Q01DX001 (ip), vehicle: steriod suspending solution 91 % of control

O=S(=O)(O)O.[Zr]
inactive: endpoint: mean survival time, dose: 75.0 mg/kg/injection, schedule: Q01DX001 (ip), vehicle: saline 97 % of control | endpoint: mean survival time, dose: 150.0 mg/kg/injection, schedule: Q01DX001 (ip), vehicle: saline 91 % of control

O=S1(=O)CC(Cl)C(Cl)C1 (stereo unspecified)
inactive: endpoint: mean survival time, dose: 50.0 mg/kg/injection, schedule: Q04DX003 (ip), vehicle: alcohol 105 % of control

COc1ccc(C(=O)C(c2ccccc2)c2ccccc2)cc1
inactive: endpoint: mean survival time, dose: 100.0 mg/kg/injection, schedule: Q04DX003 (ip), vehicle: saline with Tween-80 93 % of control | endpoint: mean survival time, dose: 200.0 mg/kg/injection, schedule: Q04DX003 (ip), vehicle: saline with Tween-80 94 % of control | endpoint: mean survival time, dose: 400.0 mg/kg/injection, schedule: Q04DX003 (ip), vehicle: saline with Tween-80 90 % of control

O=C(N/N=C/c1ccccc1O)c1ccccc1
inactive: endpoint: mean survival time, dose: 100.0 mg/kg/injection, schedule: Q01DX001 (ip), vehicle: Klucel (hydroxypropylcellulose) (HPC) 112 % of control | endpoint: mean survival time, dose: 100.0 mg/kg/injection, schedule: Q01DX009 (ip), vehicle: Klucel (hydroxypropylcellulose) (HPC) 94 % of control | endpoint: mean survival time, dose: 200.0 mg/kg/injection, schedule: Q01DX001 (ip), vehicle: Klucel (hydroxypropylcellulose) (HPC) 105 % of control | endpoint: mean survival time, dose: 200.0 mg/kg/injection, schedule: Q01DX009 (ip), vehicle: Klucel (hydroxypropylcellulose) (HPC) 104 % of control | endpoint: mean survival time, dose: 400.0 mg/kg/injection, schedule: Q01DX001 (ip), vehicle: Klucel (hydroxypropylcellulose) (HPC) 95 % of control | endpoint: mean survival time, dose: 400.0 mg/kg/injection, schedule: Q01DX009 (ip), vehicle: Klucel (hydroxypropylcellulose) (HPC) 102 % of control

Cc1cc(C)c(C(Cl)(Cl)Cl)c(C)c1Cl
inactive: endpoint: mean survival time, dose: 25.0 mg/kg/injection, schedule: Q01DX009 (ip), vehicle: saline with Tween-80 108 % of control | endpoint: mean survival time, dose: 50.0 mg/kg/injection, schedule: Q01DX009 (ip), vehicle: saline with Tween-80 111 % of control | [1] 107 % of control

O=NC1C(=O)C2CC1CC2C(=O)OC(=O)C1CC2CC1C(=O)C2N=O (stereo unspecified)
inactive: endpoint: mean survival time, dose: 75.0 mg/kg/injection, schedule: Q01DX001 (ip), vehicle: other 108 % of control | endpoint: mean survival time, dose: 150.0 mg/kg/injection, schedule: Q01DX001 (ip), vehicle: other 108 % of control

Cc1cc(C)c(N(CC(=O)O)S(=O)(=O)c2ccccc2)c(C)c1N(CC(=O)O)S(=O)(=O)c1ccccc1
inactive: [1] 97 % of control | endpoint: mean survival time, dose: 200.0 mg/kg/injection, schedule: Q01DX001 (ip), vehicle: saline with Tween-80 105 % of control | endpoint: mean survival time, dose: 400.0 mg/kg/injection, schedule: Q01DX001 (ip), vehicle: saline with Tween-80 103 % of control
